# Strand notation (5' to 3'): a small letter for the sugar, then the base; units joined by * are phosphorothioate-linked, units joined directly phosphodiester-linked; [ ] holds rarer units or linkages, { } end groups; capitals alone tell only the bases. e = 2'-O-(2-methoxyethyl) (MOE); [5mC] = 5-methylcytosine; d = 2'-deoxy (DNA)
# Tested on: human Factor 7 mRNA
# Assay: Antisense inhibition of human Factor 7 with short (14-mer) oligonucleotides in HepB3 cells, electroporation 1,000 nM
# Type: cell-based
# Conditions: electroporation, 1,000 nM antisense oligonucleotide, approximately 24 hours, Factor 7 mRNA relative to untreated control cells
# Description: Short antisense oligonucleotides (shortmers) were designed to target a Factor 7 nucleic acid. The shortmers in Table 17 were designed as 2-10-2 MOE gapmers. The gapmers are 14 nucleotides in length, wherein the central gap segment is comprised of 10 2′-deoxynucleotides and is flanked on both sides (in the 5′ and 3′ directions) by wings comprising 2 nucleotides each. Each nucleotide in the 5′ wing segment and each nucleotide in the 3′ wing segment has a 2′-MOE modification. The internucleoside linkages throughout each gapmer are phosphorothioate (P═S) linkages. All cytidine residues throughout each gapmer are 5-methylcytidines.
# Shortmers were evaluated for their ability to reduce human Factor 7 mRNA in HepB3 cells and compared with one 5-10-5 chimeric oligonucleotide from Table 16, ISIS 407939. HepB3 cells at a density of 20,000 cells per well in a 96-well plate were transfected using electroporation with 1,000 nM of antisense oligonucleotide. After a treatment period of approximately 24 hours, RNA was isolated from the cells and Factor 7 mRNA levels were measured by real-time RT-PCR, as described herein. Factor 7 mRNA levels were adjusted according to total RNA content as measured by RIBOGREEN®. Results are presented in Table 17 as percent inhibition of Factor 7 mRNA, relative to untreated control cells. ISIS 407939 is the first oligonucleotide in Table 17 to which the shortmers were compared, and is marked by an asterisk (*).
row,Substance,% Inhibition
1,435687 (antisense eA*eT*dG*dG*dT*d[5mC]*dA*dG*dT*dG*dA*dG*eG*eA) [compound 435687],7%
2,435766 (antisense eG*e[5mC]*dA*d[5mC]*d[5mC]*dT*dG*d[5mC]*dA*dG*d[5mC]*d[5mC]*eA*eG) [compound 435766],51%
3,435691 (antisense e[5mC]*eA*dG*d[5mC]*d[5mC]*dG*d[5mC]*dT*dG*dA*d[5mC]*d[5mC]*eA*eA) [compound 435691],25%
4,435723 (antisense eG*e[5mC]*d[5mC]*dA*dG*d[5mC]*dA*dG*dA*dT*d[5mC]*dA*e[5mC]*eG) [compound 435723],68%
5,435757 (antisense eT*eG*d[5mC]*d[5mC]*dT*dG*dA*dG*dT*dG*d[5mC]*d[5mC]*e[5mC]*e[5mC]) [compound 435757],51%
6,435725 (antisense eG*e[5mC]*dA*dG*d[5mC]*d[5mC]*dT*dG*dA*dG*dG*d[5mC]*e[5mC]*eA) [compound 435725],79%
7,435730 (antisense eT*eA*dA*dA*d[5mC]*dA*dA*d[5mC]*d[5mC]*dG*d[5mC]*d[5mC]*eT*eT) [compound 435730],49%
8,435739 (antisense e[5mC]*eA*dT*d[5mC]*dT*d[5mC]*dA*dG*dA*dG*dG*dA*eT*eG) [compound 435739],5%
9,435680 (antisense eG*eT*dG*d[5mC]*dT*d[5mC]*dG*d[5mC]*dT*dG*dA*dG*eG*eT) [compound 435680],52%
10,435810 (antisense e[5mC]*eT*dG*dA*dG*dG*dG*dA*dA*dT*dG*dT*eT*eG) [compound 435810],1%
11,435499 (antisense e[5mC]*eT*dG*dG*dG*dA*dG*dA*d[5mC]*d[5mC]*d[5mC]*dT*eG*eG) [compound 435499],59%
12,435684 (antisense eA*eG*d[5mC]*dA*dG*d[5mC]*dG*d[5mC]*dG*dA*dT*dG*eT*e[5mC]) [compound 435684],56%
13,435495 (antisense eG*eA*dG*dA*d[5mC]*d[5mC]*d[5mC]*dT*dG*dG*dT*dG*eT*eA) [compound 435495],27%
14,435840 (antisense eG*eG*dG*d[5mC]*d[5mC]*d[5mC]*dG*d[5mC]*d[5mC]*dA*d[5mC]*dT*eG*eG) [compound 435840],0%
15,435685 (antisense eA*eG*dG*dA*d[5mC]*d[5mC]*dA*d[5mC]*dG*dG*dG*d[5mC]*eT*eG) [compound 435685],40%
16,435768 (antisense eG*e[5mC]*d[5mC]*dT*dG*dG*dA*dT*dG*d[5mC]*dT*dG*eG*eT) [compound 435768],75%
17,435491 (antisense e[5mC]*e[5mC]*d[5mC]*dT*dG*dG*dT*dG*dT*dA*d[5mC]*dA*e[5mC]*e[5mC]) [compound 435491],61%
18,435737 (antisense eG*eT*dG*d[5mC]*dA*dG*d[5mC]*d[5mC]*d[5mC]*dG*dG*d[5mC]*eA*e[5mC]) [compound 435737],70%
19,435650 (antisense e[5mC]*e[5mC]*dG*dG*d[5mC]*d[5mC]*d[5mC]*dT*d[5mC]*dG*dA*dA*eG*eG) [compound 435650],6%
20,435748 (antisense eT*e[5mC]*d[5mC]*d[5mC]*dA*dG*dG*dG*dT*d[5mC]*dT*d[5mC]*eT*eG) [compound 435748],18%
21,435714 (antisense eA*e[5mC]*dT*d[5mC]*dG*dA*dT*dG*dT*dA*d[5mC]*dT*eG*eG) [compound 435714],3%
22,435696 (antisense e[5mC]*eA*dG*dA*dA*d[5mC]*dA*dT*dG*dT*dA*d[5mC]*eT*e[5mC]) [compound 435696],10%
23,435657 (antisense eG*e[5mC]*dA*dG*dT*dA*d[5mC]*dT*dG*d[5mC]*dT*d[5mC]*eA*e[5mC]) [compound 435657],69%
24,435670 (antisense e[5mC]*eA*dA*d[5mC]*dA*dG*dG*dA*d[5mC]*d[5mC]*dT*dG*e[5mC]*e[5mC]) [compound 435670],47%
25,435839 (antisense eG*eG*dT*d[5mC]*dA*dG*d[5mC]*dT*dG*dG*dT*d[5mC]*eT*eG) [compound 435839],14%
26,435694 (antisense e[5mC]*eT*dG*d[5mC]*dA*dG*dG*d[5mC]*dA*dG*dT*d[5mC]*e[5mC]*eT) [compound 435694],39%
27,435482 (antisense eT*eG*dG*dG*dT*d[5mC]*dA*dT*d[5mC]*dA*dG*d[5mC]*e[5mC]*eG) [compound 435482],62%

row,Substance,% Inhibition
1,435845 (antisense eG*e[5mC]*dT*d[5mC]*dA*dT*dG*dG*d[5mC]*dA*dG*dA*e[5mC]*eA) [compound 435845],21%
2,435689 (antisense eT*eT*d[5mC]*dG*dG*dG*d[5mC]*dA*dG*dG*d[5mC]*dA*eG*eA) [compound 435689],23%
3,435799 (antisense e[5mC]*eT*dG*dG*dT*d[5mC]*d[5mC]*d[5mC]*d[5mC]*dA*dT*d[5mC]*eT*eG) [compound 435799],33%
4,435765 (antisense e[5mC]*eA*dA*dA*dG*dT*dT*d[5mC]*dT*d[5mC]*dT*dG*e[5mC]*e[5mC]) [compound 435765],1%
5,435641 (antisense eG*eG*dT*d[5mC]*d[5mC]*d[5mC]*d[5mC]*dA*dT*d[5mC]*dA*d[5mC]*eT*eG) [compound 435641],51%
6,435743 (antisense eG*e[5mC]*d[5mC]*dT*d[5mC]*dA*dA*dA*d[5mC]*dA*dT*d[5mC]*eT*eA) [compound 435743],40%
7,435682 (antisense eG*eG*dA*dT*dG*dA*dT*dG*dA*d[5mC]*d[5mC]*dT*eG*e[5mC]) [compound 435682],36%
8,435649 (antisense eA*eG*dG*d[5mC]*dA*dG*dA*dA*dG*d[5mC]*dA*dG*eA*eT) [compound 435649],21%
9,435749 (antisense e[5mC]*eA*dG*d[5mC]*d[5mC]*dA*dG*dG*dG*d[5mC]*d[5mC]*dT*eG*eG) [compound 435749],29%
10,435671 (antisense eT*e[5mC]*dA*d[5mC]*d[5mC]*dA*dA*d[5mC]*dA*dA*d[5mC]*dA*eG*eG) [compound 435671],28%
11,435848 (antisense eT*eG*dG*d[5mC]*d[5mC]*dA*d[5mC]*dT*dG*d[5mC]*d[5mC]*dT*e[5mC]*eA) [compound 435848],32%
12,435777 (antisense e[5mC]*eT*dG*dA*dG*dG*dA*dT*dG*d[5mC]*dA*dG*eG*e[5mC]) [compound 435777],53%
13,435831 (antisense eG*eA*dT*d[5mC]*dT*dT*d[5mC]*dA*d[5mC]*dA*dT*dA*eG*e[5mC]) [compound 435831],51%
14,435851 (antisense eA*e[5mC]*dA*dG*dG*d[5mC]*d[5mC]*dA*dG*dG*d[5mC]*dT*eG*eG) [compound 435851],0%
15,435780 (antisense eG*eG*dA*dG*dG*dG*dA*d[5mC]*dG*dA*d[5mC]*d[5mC]*eT*eT) [compound 435780],28%
16,435488 (antisense e[5mC]*eA*dG*dT*d[5mC]*d[5mC]*dT*dG*dG*dG*dT*d[5mC]*eA*eT) [compound 435488],17%
17,435788 (antisense e[5mC]*e[5mC]*dT*dG*dT*dG*dA*dG*dT*dG*dT*dG*eA*eG) [compound 435788],20%
18,435742 (antisense eA*eT*dG*dT*dG*dA*dG*dG*dG*dT*dT*d[5mC]*eA*eT) [compound 435742],11%
19,435833 (antisense eA*eG*dA*d[5mC]*dA*d[5mC]*dT*dT*dG*dA*dG*dA*eG*e[5mC]) [compound 435833],24%
20,435489 (antisense e[5mC]*eT*dG*dG*dT*dG*dT*dA*d[5mC]*dA*d[5mC]*d[5mC]*e[5mC]*e[5mC]) [compound 435489],72%
21,435645 (antisense eG*eG*dA*dG*d[5mC]*dT*dG*dG*dT*d[5mC]*d[5mC]*dT*eT*eG) [compound 435645],44%
22,435732 (antisense eG*eA*dA*dA*dA*dG*dT*dG*dA*dG*dA*dG*e[5mC]*eT) [compound 435732],0%
23,435849 (antisense eT*eG*d[5mC]*d[5mC]*dG*dT*dA*dG*dT*dG*dG*d[5mC]*e[5mC]*eG) [compound 435849],31%
24,435727 (antisense eT*eG*dG*dA*dG*dT*d[5mC]*dA*dG*d[5mC]*dA*dT*e[5mC]*eG) [compound 435727],73%
25,435820 (antisense e[5mC]*eA*dT*d[5mC]*d[5mC]*dT*dA*dG*dT*d[5mC]*dA*d[5mC]*eT*eG) [compound 435820],19%
26,435846 (antisense eT*eG*dG*dA*dG*dA*dG*dA*d[5mC]*d[5mC]*dA*dA*eT*eG) [compound 435846],7%
27,435502 (antisense eG*eT*dA*d[5mC]*dT*dG*dG*dG*dA*dG*dA*d[5mC]*e[5mC]*e[5mC]) [compound 435502],69%

# Source: patent publication US9029337B2, “Modulation of factor 7 expression” (Isis Pharmaceuticals, Inc., priority 2007, dated 2015)
